ChEMBL document CHEMBL1135256, “Benzimidazole-4,7-diones as inhibitors of protozoal (Toxoplasma gondii) purine nucleoside phosphorylase” (Bioorg Med Chem Lett, 2002)

What was measured:
[1] = system: Purine nucleoside phosphorylase (Toxoplasma gondii); test: Inhibition of Toxoplasma gondii purine nucleoside phosphorylase from virulent strain RH at 1 mM
[2] = system: Purine nucleoside phosphorylase (Toxoplasma gondii); test: Inhibition of Toxoplasma gondii purine nucleoside phosphorylase from virulent strain RH at 4 mM
[3] = system: Purine nucleoside phosphorylase (Toxoplasma gondii); test: Inhibition of Toxoplasma gondii purine nucleoside phosphorylase from cystic strain ME 49 at 1 mM
[4] = system: Purine nucleoside phosphorylase (Toxoplasma gondii); test: Inhibition of Toxoplasma gondii purine nucleoside phosphorylase from cystic strain ME 49 at 4 mM
[5] = target: T1, Purine nucleoside phosphorylase (Homo sapiens) (UniProt P00491); test: Compound was evaluated for its ability to inhibit in vitro Toxoplasma gondii purine nucleoside phosphorylase from cystic strain ME 49 at a concentration of 4 mM
T1 sequence (whole entry): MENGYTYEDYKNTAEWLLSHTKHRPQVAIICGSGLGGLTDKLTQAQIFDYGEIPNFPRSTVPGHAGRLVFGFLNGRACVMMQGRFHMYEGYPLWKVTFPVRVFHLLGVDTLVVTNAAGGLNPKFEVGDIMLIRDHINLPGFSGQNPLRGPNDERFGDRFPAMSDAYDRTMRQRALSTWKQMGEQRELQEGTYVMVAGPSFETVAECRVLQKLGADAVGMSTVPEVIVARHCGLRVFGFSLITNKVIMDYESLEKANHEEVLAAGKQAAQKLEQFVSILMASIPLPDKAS

| SMILES | inhibition [1] [%] | inhibition [2] [%] | inhibition [3] [%] | inhibition [4] [%] | inhibition [5] [%] |
| --- | --- | --- | --- | --- | --- |
| O=C1C=CC(=O)c2c1nc(Cc1ccccc1)n2Cc1ccccc1 | 65 | 80 | 61 | 78 |  |
| O=C1C=CC(=O)c2[nH]cnc21 | 47 | 68 | 52 | 71 |  |
| O=C1C=CC(=O)c2c1ncn2Cc1ccc(F)cc1 | 80 | 88 | 56 |  | 100 |
| Cc1nc2c(n1Cc1ccccc1)C(=O)C=CC2=O | 54 | 82 | 66 | 92 |  |
| O=C1C=CC(=O)c2c1ncn2Cc1cccc(F)c1 | 65 | 100 | 60 | 100 |  |
| Cn1cnc2c1C(=O)C=CC2=O | 55 | 85 | 31 | 82 |  |
| O=C1C=CC(=O)c2c1ncn2Cc1ccccc1F | 70 | 87 | 62 | 89 |  |
| CCCCn1cnc2c1C(=O)C=CC2=O | 45 | 68 | 53 | 65 |  |
| O=c1[nH]cnc2c1cnn2[C@@H]1O[C@H](CO)[C@@H](O)[C@H]1O | 8 | 28 | 11 | 22 |  |
